The values below come from PMC10609429, “Crystal Structure and Intermolecular Energy for Some Nandrolone Esters” (Molecules, 2023).

Values after ≈ are worked out from the molar mass of the structure shown. Values joined by “and” are separate entries in the source; they are usually repeats but may differ in a detail not shown here. Equal entries are not always repeated. Where two headings read alike, the source gives them in different places.

A short description of data set [1]: Solubility evaluation of nandrolone esters in oil / benzyl benzoate / benzyl alcohol mixtures. The data set is classed as physicochemical. Conditions: 24 °C, oil or lipid, thermodynamic from solid. On the procedure: From a pharmaceutical standpoint, the solubility of esterified agents (mg/mL) plays an important role in drug development and delivery. In this context, the solubilities were evaluated in multiple mixtures based on various organic oils: medium-chain triglyceride (MCT), apricot, grape seed oil (GSO) and cottonseed oil. Each solution contains a mixture of benzyl alcohol, benzyl benzoate and oil with a volumetric ratio of 2% benzyl alcohol, 20% benzyl benzoate and the rest of 78% oil.
Solubility evaluation was accomplished at a room temperature of 24 °C in successive additions of small quantities of raw materials (a few mg each step). The mixtures were stirred for up to several hours in order to achieve a completely dissolved solution. In the case that an undissolved excess of raw materials remained in the suspension, small quantities of mixtures were added until the solutions became perfectly homogenous and clear. Two measurements were performed in order to attain a good accuracy; their average was further discussed.

On the set-up of data set [2]: method as in PMID 28522428. Conditions: two polymorphs, respectively; ambient temperature of 20 °C; mixtures of castor oil; cited from earlier work.
For data set [3] the following is noted: unesterified nandrolone; cited from earlier work.
Details of data set [4]: method as in PMID 817322. Conditions: oral vs subcutaneous; cited from earlier work.
The conditions of data set [5]: analogue esters of testosterone; cited from earlier work.
The mark [6] stands for this setting: average over the four oil mixtures (apricot, GSO, MCT, cottonseed), read-out: Solubility (average).
Setting [7] is: medium-chain triglyceride mixture: 2% benzyl alcohol, 20% benzyl benzoate, 78% oil (v/v), room temperature 24 °C, average of two measurements, read-out: Solubility, MCT.
Setting [8] is: apricot oil / benzyl benzoate / benzyl alcohol mixture, apricot oil mixture: 2% benzyl alcohol, 20% benzyl benzoate, 78% oil (v/v), room temperature 24 °C, average of two measurements, read-out: Solubility, APRICOT.
[9] abbreviates: cottonseed oil / benzyl benzoate / benzyl alcohol mixture, cottonseed oil mixture: 2% benzyl alcohol, 20% benzyl benzoate, 78% oil (v/v), room temperature 24 °C, average of two measurements, read-out: Solubility, COTTON.
Where [10] appears, read: grape seed oil / benzyl benzoate / benzyl alcohol mixture, grape seed oil mixture: 2% benzyl alcohol, 20% benzyl benzoate, 78% oil (v/v), room temperature 24 °C, average of two measurements, read-out: Solubility, GSO.

Turning to `C[C@]12CC[C@H]3[C@@H](CCC4=CC(=O)CC[C@@H]43)[C@@H]1CC[C@@H]2OC(=O)CCc1ccccc1` [NPhp, Nandrolone phenylpropionate], the solubility in data set [1] (setting [6]) was approximately 138 mg/mL (≈ 339 mM); in data set [1] (setting [7]), 148 mg/mL (≈ 365 mM); in data set [1] (setting [8]), 127 mg/mL (≈ 313 mM); in data set [1] (setting [9]), 140 mg/mL (≈ 345 mM); in data set [1] (setting [10]), 137 mg/mL (≈ 336 mM).
As for `CCC(=O)OC1CCC2C3CCC4=CC(=O)CCC4C3CCC12C` (centres unmarked) [NPro, Nandrolone propionate], the solubility in data set [1] (setting [6]) is approximately 188 mg/mL (≈ 569 mM); in data set [1] (setting [7]), 187 mg/mL (≈ 566 mM); in data set [1] (setting [8]), 181 mg/mL (≈ 548 mM); in data set [1] (setting [9]), 180 mg/mL (≈ 544 mM); in data set [1] (setting [10]), 204 mg/mL (≈ 619 mM).
Turning to `CCCCCCCCCCC(=O)OC1CCC2C3CCC4=CC(=O)CCC4C3CCC12C` (centres unmarked) [NUnd, Nandrolone undecanoate], the solubility in data set [1] (setting [6]) is approximately 192 mg/mL (≈ 433 mM); in data set [1] (setting [7]), 211 mg/mL (≈ 478 mM); in data set [1] (setting [8]) it was 183 mg/mL (≈ 413 mM); in data set [1] (setting [9]), 199 mg/mL (≈ 450 mM); in data set [1] (setting [10]), 173 mg/mL (≈ 391 mM).
Consider `CCCCCC(=O)O[C@]1(C(C)=O)CC[C@H]2[C@@H]3CCC4=CC(=O)CC[C@]4(C)[C@H]3CC[C@@]21C` [hydroxyprogesterone caproate], for which the solubility in data set [2] was 278 mg/mL and 301 mg/mL.
In the case of `C[C@]12CC[C@H]3[C@@H](CCC4=CC(=O)CC[C@@H]43)[C@@H]1CC[C@@H]2O` [nandrolone, Estr-4-en-17β-ol-3-one], the Half-life entry in data set [3] is “a few hours”. Also, the “Potency of the oral form compared with subcutaneous administration” value in data set [4] is “one-tenth”.
On to `C[C@]12CC[C@H]3[C@@H](CCC4=CC(=O)CC[C@@]43C)[C@@H]1CC[C@@H]2OC(=O)CCC1CCCC1` [testosterone cypionate], for which the solubility in data set [5] is recorded as 255 mg/mL (≈ 618 mM).
`CCCCCCCCCCC(=O)O[C@H]1CC[C@H]2[C@@H]3CCC4=CC(=O)CC[C@]4(C)[C@H]3CC[C@]12C` [undecanoate ester of testosterone]: the solubility in data set [5] is given as 197 mg/mL (≈ 431 mM).

For orientation: solubility means the concentration that dissolves in the medium under given conditions.
